Assay results taken from patent US20240415820A1, “COMBINATIONS FOR RETAINING FOLLICLES RESERVE” (SHEBA IMPACT LTD., priority 2021, published 2024).

What was measured:
[1] = test system: primordial follicles (PMF); assay: In vivo mouse model of Cy-induced follicle depletion, follicle counting (H&E)
Description: Ovaries removed 12 h, 24h, 3 days or 21 days following Cy treatment were fixed in PFA, paraffin-embedded and serially sectioned (5-μm).
Follicle counting: H&E staining was used for differential follicle counts in ovaries removed 3 and 21 days following Cy treatment and conducted as previously described. […] Atretic follicles were not calculated. Only follicles with non-atretic and healthy granulosa cells were counted for total number

[2] = 3 cycles of mating after Cy, alone or co-treated
mTOR = assay: Western blotting of whole ovaries, pmTOR/mTOR; format: in vivo, mouse; details: whole ovaries 24 hours after Cy 150 mg/kg, alone or co-treated
PMF oocytes [3] = assay: DNA damage assay, γH2AX staining; format: in vivo, mouse; details: ovaries removed 12 h after Cy, alone or co-treated; FIG. 7A
Description: BALB/c female mice aged 12 days or 8 weeks (Envigo, Israel) were given a single intraperitoneal injection of 200 μl of PBS or an equal volume of 150 mg/kg Cy (Sigma-Aldrich), 5 mg/kg temsirolimus (Selleck Chemicals; 5 doses in 7 days before Cy treatment, Bozec et al., 2011; Wan et al., 2006) or 5 μg/mouse human C-terminus recombinant AMH (rAMH R&D Systems), 5 doses in 24 hours—every 6 hours following the administration of Cy (Roness et al., 2019). Ovaries were collected either 12 or 24 hours after Cy treatment for protein analysis and histochemical staining, and 3 or 21 days after Cy treatment for H&E staining and follicle counts. Ovaries were removed and placed immediately into either RNA later solution or 4% paraformaldehyde. All procedures were approved by the Institutional Animal Care and Use Institutional Ethics Committee.
DNA damage assay: Sample sections (5μ) from ovaries removed 12h after Cy treatment were stained for DNA damage evaluation with γH2AX antibody, and all the PMF oocytes were classified as positive/negative for DNA damage. Oocytes were counted from 6-8 ovaries and the ratio of stained oocytes to total oocytes was calculated.

primary follicles = assay: Proliferation assay, Ki-67 staining of primary follicles; format: in vivo, mouse
Description: Mild proliferation: 1-2 granulosa cells per follicle stained for Ki-67. Extensive proliferation: 3 or more granulosa cells per follicle stained for Ki-67. An average number of primary follicles stained in each category in 2-3 sections per ovary was calculated.

rpS6 = assay: Western blotting of whole ovaries, prpS6/rpS6; format: in vivo, mouse; details: whole ovaries 24 hours after Cy 150 mg/kg, alone or co-treated
PMF oocytes [4] = assay: Apoptosis assay, cPARP staining; format: in vivo, mouse; details: ovaries removed 24 h after Cy, alone or co-treated; FIG. 7B
Description: Apoptosis assay: Sample sections (5μ) from ovaries removed 24h after Cy treatment were stained for apoptotic marker cPARP antibody, and all the PMF oocytes were classified as positive/negative for apoptosis. Oocytes were counted from 6-8 ovaries and the ratio of stained oocytes to total oocytes was calculated.

[5] = test system: primordial follicles (PMF); assay: Ex vivo culture of neonatal mouse ovaries with PM, PMF counting (H&E); format: cell-based; details: ex vivo ovaries of 12 days mice, PM 4 hours, with or without 400 nM Tem; FIG. 2A
[6] = Cy 150 mg/kg, with or without Tem, FIG. 3B

O=P1(N(CCCl)CCCl)NCCCO1 (stereo not shown) [Cy, cyclophosphamide]
PMF loss ([1]; mouse, in vivo): 77%
PMFs 3 days after Cy treatment ([1]; mouse, in vivo): 59.5±2.7
number of PMFs three weeks after treatment ([1]; mouse, in vivo): 32±2.12
ratio between growing and dormant follicles ([1]; mouse, in vivo): 1.31
total number of growing follicles 3 days after Cy treatment ([1]; mouse, in vivo): 78.5±6.1
mean litter size [2]: 4.62
relative band intensity of phosphorylated mTOR (pmTOR/mTOR ratio) (mTOR): 1.44
PMF oocytes stained positive for γH2AX (DNA damage) (PMF oocytes [3]): more than 90%
Granulosa cells in primary follicles, Extensive proliferation (primary follicles; mouse, in vivo): 21%
Granulosa cells in primary follicles, Mild proliferation (primary follicles; mouse, in vivo): 63%
Granulosa cells in primary follicles, No proliferation (primary follicles; mouse, in vivo): 16%
primary follicles classified as proliferating (either mild or extensive proliferation) (primary follicles; mouse, in vivo): 84%
relative band intensity of phosphorylated rpS6 (prpS6/rpS6 ratio) (rpS6): 1.88
PMF oocytes stained positive for cPARP (apoptosis) (PMF oocytes [4]): 22%

CO[C@H]1C[C@@H]2CC[C@@H](C)[C@@](O)(O2)C(=O)C(=O)N2CCCC[C@H]2C(=O)O[C@H]([C@H](C)C[C@@H]2CC[C@@H](OC(=O)C(C)(CO)CO)[C@H](OC)C2)CC(=O)[C@H](C)/C=C(\C)[C@@H](O)[C@@H](OC)C(=O)[C@H](C)C[C@H](C)/C=C/C=C/C=C/1C [Tem, Temsirolimus]
PMF count 21 days after Cy treatment ([1]; 8-week-old mice, single dose Cy 150 mg/kg, with or without Tem 5 mg/kg 5 doses, FIG. 3A): 122.5±1.7
ratio between growing and dormant follicles ([1]; 3 days after Cy 150 mg/kg, with or without Tem, FIG. 3C): 0.66
number of PMFs three weeks after treatment ([1]; Cy 150 mg/kg, with or without Tem and/or rAMH (5 μg/mouse, 5 doses), FIG. 4): 68.5±2.69
PMFs 3 days after Cy treatment [1, 6]: 101.6±8.9
total number of growing follicles 3 days after Cy treatment [1, 6]: 65.6±5.2
PMF loss ([1]; three weeks after Cy 150 mg/kg, with or without co-treatment, FIG. 4): 52%
PMFs on day 7 of culture [5]: 124±5.9
relative band intensity of phosphorylated mTOR (pmTOR/mTOR ratio) (mTOR): 0.57
Granulosa cells in primary follicles, Mild proliferation (primary follicles; Ki-67, 1-2 granulosa cells stained, ovaries removed 24 hours after Cy 150 mg/kg or PBS): 22%
Granulosa cells in primary follicles, Extensive proliferation (primary follicles; Ki-67, 3 or more granulosa cells stained, ovaries removed 24 hours after Cy 150 mg/kg or PBS): 5%
primary follicles classified as proliferating (either mild or extensive proliferation) (primary follicles; Ki-67, 24 hours after Cy, alone or co-treated): 32%
Granulosa cells in primary follicles, No proliferation (primary follicles; Ki-67, ovaries removed 24 hours after Cy 150 mg/kg or PBS): 73%
relative band intensity of phosphorylated rpS6 (prpS6/rpS6 ratio) (rpS6): 0.3
PMF oocytes stained positive for cPARP (apoptosis) (PMF oocytes [4]): 14%
